Assay results taken from US4859671A, “2-substituted 1,2-benzisothiazol-3(2H)-one 1,1-dioxide useful as an anxiolytic agent” (American Home Products Corporation, priority 1988, dated 1989).

Key:
5-HT1A receptor = target: T1, 5-HT1A receptor (Rattus norvegicus, UniProt P19327); settings: for inhibition at 1 µM: pH 7.7, read-out: % Inhibition at 1 μM, 5-HT1A Receptor Binding
T1 sequence (P19327 1-422): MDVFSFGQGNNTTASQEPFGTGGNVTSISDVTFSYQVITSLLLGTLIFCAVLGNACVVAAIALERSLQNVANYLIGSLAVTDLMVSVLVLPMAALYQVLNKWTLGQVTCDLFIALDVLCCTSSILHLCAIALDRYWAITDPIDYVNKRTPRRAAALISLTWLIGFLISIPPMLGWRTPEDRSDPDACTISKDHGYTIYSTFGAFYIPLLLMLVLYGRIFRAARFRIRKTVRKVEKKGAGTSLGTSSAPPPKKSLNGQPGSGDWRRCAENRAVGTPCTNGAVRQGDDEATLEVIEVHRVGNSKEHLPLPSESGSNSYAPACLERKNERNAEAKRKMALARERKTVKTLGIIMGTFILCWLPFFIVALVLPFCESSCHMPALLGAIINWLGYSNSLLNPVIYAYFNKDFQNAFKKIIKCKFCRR
Experimental: The assay is carried out as follows:
Hippocampal tissue from male Sprague Dawley rats is dissected and homogenized on ice in 40 volumes of buffer A (50 mM Tris-HCl, pH=7.7) using a Polytron homogenizer at setting 5 for 3×15-second bursts. The homogenate is then centrifuged at 20,000 rpm (RC5-B; 50,000 g), and the supernatant is discarded. The pellet is resuspended in 40 volumes of the same buffer and incubated at 37° C. for 10 minutes to aid in the removal of endogenous serotonin. The homogenate is then centrifuged (as above) and the supernatant discarded. The pellet is then resuspended in 100 volumes of buffer B (50 mM Tris HCl, pH=7.7 containing 0.1% ascorbate, 10 μM pargyline and 4 mM CaCl2) and sonicated. An aliquot is taken for protein determination by the Lowry method and the remainder stored frozen at -70° C. until used.
At the end of the incubation, 3 mL of cold buffer A are added to each tube, and the contents rapidly filtered through Whatman GF/B glass-fiber filters. The filters are then rapidly washed 2 times with 3 mL of the same buffer, placed in scintillation vials, and shaken for 15 minutes with 10 mL of Hydrofluor (National Diagnostics) scintillation cocktail. The vials are then counted in a Packard 460CD scintillation counter.
Specific binding is defined as total binding less binding in the presence of excess unlabeled serotonin (1 μM). Binding in the presence of various concentrations of test drug is expressed as a percent of specific binding when no drug is present. […] Ki (inhibition constant) for the test drug is then calculated by the formula: [formula]

anxiety = settings: cited from earlier work; for efficacy in the treatment of anxiety neuroses (in words): clinical, compared with diazepam
5-HT1A receptors = settings: compared with buspirone; cited from earlier work

## O=C1CC2(CCCC2)CC(=O)N1CCCCN1CCN(c2ncccn2)CC1 [Buspirone]
5-HT1A receptor
  inhibition at 1 µM: 94%

## O=C1c2ccccc2S(=O)(=O)N1CCCCN1CCN(c2nccc3ccncc23)CC1 [Example 1, 2-[4-[4-(2,7-Naphthyridin-1-yl)-1-piperazinyl]butyl]-1,2-benzoisothiazol-3(2H)-one 1,1-Dioxide]
5-HT1A receptor; conclusion from Table 1
  affinity for the 5-HT1A receptor site (in words): high affinity
5-HT1A receptor
  inhibition at 1 µM: 100%

## CC1(C)CC(=O)N(CCCCN2CCN(c3ncccn3)CC2)C(=O)C1 [Gepirone, 4,4-dimethyl-1-[4-[4-(2-pyrimidinyl)-1-piperazinyl]butyl]-2,6-piperidinedione]
anxiety
  anxiolytic activity in clinical trials (in words): potent anxiolytic drugs
  efficacy in the treatment of anxiety neuroses (in words): comparable to the benzodiazepine diazepam

## O=C1c2ccccc2S(=O)(=O)N1CCCCN1CCN(c2ncccn2)CC1 [ipsapirone]
anxiety
  anxiolytic activity in clinical trials (in words): potent anxiolytic drugs
5-HT1A receptors
  selectivity for 5-HT1A receptors relative to buspirone (in words): higher degree of selectivity for 5-HT1A receptors than buspirone

## Cc1nc2sccn2c(=O)c1CCN1CCC(=C(c2ccc(F)cc2)c2ccc(F)cc2)CC1 [ritanserin]
anxiety
  efficacy in the treatment of anxiety neuroses (in words): comparable to the benzodiazepine diazepam
